Measurements from US7776292B2 (priority 2004, dated 2010).
“And” between values parts separate entries of the source, which are not always exact repeats. Equal entries are not always repeated.

Experiments:
Type in all cases: cell-based
weaponized spores [1] = tested on: weaponized spores
[2] = tested on: conventional biological indicator spores
weaponized spores [3] = tested on: weaponized spores; remark: listed apart in the source
[4] = tested on: conventional biological indicator spores; remark: listed apart in the source
weaponized spores [5] = tested on: weaponized spores; remark: listed apart in the source
weaponized spores [6] = tested on: weaponized spores; remark: listed apart in the source
weaponized spores [7] = tested on: weaponized spores; remark: listed apart in the source
[8] = tested on: TP 10 (conventional bioindicator spores)
[9] = tested on: conventional biological indicator spores; remark: listed apart in the source
weaponized spores [10] = tested on: weaponized spores; remark: listed apart in the source

[O][Cl+][O-] [chlorine dioxide]
viability in culture, Humidification Time 1 hour (weaponized spores [1]): Positive
viability in culture, Humidification Time 2 hours (weaponized spores [1]): Positive
viability in culture, Humidification Time 3 hours (weaponized spores [1]): Positive
viability in culture, Humidification Time 1 hour [2]: Negative
viability in culture, Humidification Time 2 hours [2]: Negative
viability in culture, Humidification Time 3 hours [2]: Negative
viable spores after Cycle 1 (weaponized spores [3]): 5.7 × 10^4
viable spores after Cycle 2 (weaponized spores [3]): 0
viable spores after Cycle 3 (weaponized spores [3]): 3.3 × 10^1
filters with viable spores/filters, ClO2 Concentration 500 ppm [4]: 0/2
filters with viable spores/filters, ClO2 Concentration 1000 ppm [4]: 0/2
filters with viable spores/filters, ClO2 Concentration 2500 ppm [4]: 0/2
filters showing viable spores following decontamination (out of 16) (weaponized spores [5]): none
filters with viable spores/filters, ClO2 Concentration 500 ppm (weaponized spores [6]): 3/4 and 2/2; and 2/2
filters with viable spores/filters, ClO2 Concentration 1000 ppm (weaponized spores [6]): 0/2
filters with viable spores/filters, ClO2 Concentration 2500 ppm (weaponized spores [6]): 0/2
viable spore count, ClO2 Concentration 500 ppm (weaponized spores [6]): 1.43 × 10^3
filters with viable spores/filters, Humidification time 1 hour (weaponized spores [7]): 0/2
filters with viable spores/filters, Humidification time 2 hours (weaponized spores [7]): 0/2
filters with viable spores/filters, Humidification time 3 hours (weaponized spores [7]): 0/2
viable spores after Cycle 1 [8]: 4.3 × 10^5
viable spores after Cycle 2 [8]: 1.3 × 10^3
viable spores after Cycle 3 [8]: 7.2 × 10^2
filters with viable spores/filters, Humidification time 1 hour [9]: 0/2
filters with viable spores/filters, Humidification time 2 hours [9]: 0/2
filters with viable spores/filters, Humidification time 3 hours [9]: 0/2
10^−4 (Dilution on agar) (weaponized spores [10]): TNTC
